Assay results reported in US8252832B2, “Kinesin inhibitors as cancer therapeutics” (Novartis AG, priority 2007, dated 2012).
Marks after values point to notes of the source that are not given here.

What was measured:
Format in all cases: in vivo, mouse
HCT15 tumor xenograft = HCT15 tumor xenograft model, tumor response
Protocol: (§1) Routine animal care and assurance of welfare were as described above.
Human HCT15 colon carcinoma cells were obtained from the National Cancer Institute's DCTD Tumor Repository (catalog #NCI-502711, Rockville, Md.). HCT15 cells were grown in RPMI 1640 with 2 mM L-glutamine (Mediatech Inc., catalog #15-040-CV) supplemented with 10% fetal bovine serum (JRH Biosciences, catalog #12003-1000M). The cells were tested to be free of Mycoplasma sp. and murine viruses in the IMPACT1 PCR assay panel (RADIL, University of Missouri, Columbia, Mo.)
These cells were grown as adherent cultures, maintained at 37° C. in a humidified atmosphere containing 5% carbon dioxide. Cells were cultured for fewer than 10 passages prior to use. Cells were harvested at 95% confluency, and centrifuged at ˜800×g for 5 minutes at 4° C. and then resuspended in a 1:1 ratio of HBSS (Mediatech Inc., catalog #21-021-CV) plus Matrigel™ at a concentration of 50 million cells/mL for implantation subcutaneously (injection volume of 0.2 mL).
(§2) Treatments for the efficacy studies were initiated 10 days following tumor cell implantation when tumors were approximately 300 mm^3. Compound IIa and SB-715992 were administered intravenously (i.v.) via the tail vein in a volume of 8 mL/kg at the doses indicated. Paclitaxel was administered intraperitoneally (i.p.) in a volume of 16 mL/kg at 30 mg/kg.
(§3) Tumor volume was calculated as (L×W2)/2. […] Data was analyzed as described above.

[1] = Subcutaneous KMS-11-luc tumor xenograft model, host response
Protocol: Experiments were performed using immunodeficient SCID-Beige female mice approximately 7-8 weeks old (Charles River Laboratories, Wilmington, Mass.). […] Routine animal care and assurance of welfare were as described above.
Compound IIa and SB-715992 (free base) were formulated in 20% Captisol for a dose volume of 8 mL/kg. Doses were adjusted to each animal's body weight.
For the efficacy evaluation in the subcutaneous tumor model, 10 million cells combined in a 1:1 mixture of HBSS and Matrigel™ were injected subcutaneously in the right flank in a total volume of […]. […] Tumor volume was calculated as (L×W2)/2. […] Data analysis was as described above.

HCT116 tumor xenograft = HCT116 tumor xenograft model, tumor response
Protocol: The cell line HCT-116 has been widely used in the evaluation of mitotic inhibitors such as microtubule disruptors, mitotic kinase inhibitors and KSP inhibitors. […] Experiments were performed using outbred athymic nu/nu mice approximately 6-8 weeks old (Charles River Laboratories, Hollister, Calif.). […] Mice were housed 4-5 animals per cage in clear polycarbonate micro-isolator cages with a 12-hour light, 12-hour dark cycle at temperatures between 70-80 degrees Fahrenheit and 30-70% relative humidity. Food (Purina rodent chow pellets) and water were provided ad libitum. Mice were handled in accordance with Novartis ACUC regulations and guidelines and the ILAR Guide for the Care and Use of Laboratory Animals. Experiments were performed in an AAALAC accredited facility under an ACUC approved protocol.
Compound IIa (free base) and SB-715992 (ispinesib, a KSP inhibitor by Cytokinetics that is in clinical trials; as its free base) were formulated in 20% Captisol® for all the above doses for a dose volume of 8 mL/kg. Doses were adjusted to each animal's body weight.
Human HCT116 colon carcinoma cells were obtained from the National Cancer Institute's DCTD Tumor Repository (catalog #NCI-502568, Rockville, Md.) and tested to be free of Mycoplasma sp. and murine viruses in the IMPACT1 PCR assay panel (RADIL, University of Missouri, Columbia, Mo.). HCT116 cells were grown in RPMI 1640 with 2 mM L-glutamine (Mediatech Inc., catalog #15-040-CV) supplemented with 10% fetal bovine serum (JRH Biosciences, catalog #12003-1000M). These cells were grown as adherent cultures, maintained at 37° C. in a humidified atmosphere containing 5% carbon dioxide. Cells were cultured for fewer than 10 passages prior to use. Cells were harvested at 95% confluency, and centrifuged at ˜800×g for 5 minutes at 4° C. and then resuspended in a cold HBSS (Mediatech Inc., catalog #21-021-CV) at a concentration of 50 million cells/mL for implantation subcutaneously (injection volume of 0.1 mL).
Female nu/nu mice (Charles River, Hollister, Calif.) were injected subcutaneously in the right flank with 5 million HCT-116 tumor cells suspended in Hank's Balanced Salt Solution (HBSS) in a total volume of 0.1 mL/mouse. For the efficacy studies, mice were randomized 10 days post-implant. […] Tumor volume was calculated as (L×W2)/2. […] Percent treatment/control (T/C) values were calculated using the following formula: % T/C=100×ΔT/ΔC
All data were expressed as mean and SEM. Between-groups comparisons for final tumor measurements were performed using the one-way ANOVA pair-wise analysis. Significance was determined using Kruskal-Wallis one-way ANOVA on Ranks and Dunn's method for multiple pair-wise comparisons. Statistical analysis was carried out using SigmaStat (Systat Software Inc., San Jose, Calif.).

[2] = HCT15 tumor xenograft model, host response
Protocol: as §1, §2, §3

[3] = Subcutaneous MV4; 11 tumor xenograft model, host response
Protocol: Subcutaneous tumor efficacy studies were performed using outbred athymic nu/nu mice approximately 6-8 weeks old (Charles River Laboratories, Hollister, Calif.). The efficacy study in the disseminated disease model was performed using immunodeficient NOD-SCID female mice approximately 7-8 weeks old (Jackson Laboratories, Bar Harbor, Me.). […] Routine animal care and assurance of welfare were as described above.
The compound IIa (free base) and SB-715992 (free base) were formulated in 20% Captisol for a dose volume of 8 mL/kg. Doses were adjusted to each animal's body weight.
For the two efficacy evaluations in the subcutaneous tumor model, 10 million cells combined in a 1:1 mixture of HBSS and Matrigel™ were injected subcutaneously in the right flank in a total volume of 0.2 mL/mouse. […] Tumor volume was calculated as (L×W2)/2.

CC(C)(C)[C@H](c1nc(-c2cc(F)ccc2F)cn1Cc1ccccc1)N(CC[C@H](N)CF)C(=O)CO [Compound IIa]
Δ Tumor volume, Day 15 (HCT15 tumor xenograft; 1.25 mg/kg, q4d × 3, i.v): 671 ± 172 mm^3 | ΔT/ΔC, Day 15 (%) (HCT15 tumor xenograft; 1.25 mg/kg, q4d × 3, i.v): 60% | Δ Tumor volume, Day 15 (HCT15 tumor xenograft; 2.5 mg/kg, q4d × 3, i.v): 735 ± 159 mm^3 | ΔT/ΔC, Day 15 (%) (HCT15 tumor xenograft; 2.5 mg/kg, q4d × 3, i.v): 65% | Δ Tumor volume, Day 15 (HCT15 tumor xenograft; 4.0 mg/kg, q4d × 3, i.v): 99 ± 78 mm^3 | ΔT/ΔC, Day 15 (%) (HCT15 tumor xenograft; 4.0 mg/kg, q4d × 3, i.v, listed as COMPOUND IIa): 26* % | ΔT/ΔC, Day 15 (%) (HCT15 tumor xenograft; 4.0 mg/kg, q4d × 3, i.v, listed as compound IIa): 26% | Survival (alive/total) ([1]; 0.25 mg/kg, Q4d × 3, i.v): 9/9 | Survival (alive/total) ([1]; 0.5 mg/kg, Q4d × 3, i.v): 9/9 | Survival (alive/total) ([1]; 1 mg/kg, Q4d × 3, i.v): 8/9 | T/C, Day 24 (%) (HCT116 tumor xenograft; 0.125 mg/kg, i.v., q4d × 3): 81% | Δ Tumor volume, Day 24 (HCT116 tumor xenograft; 0.125 mg/kg, i.v., q4d × 3): 809 ± 193 mm^3 | anti-tumor effect (HCT116 tumor xenograft; 0.125 mg/kg, q4d×3): not significantly different from vehicle control | T/C, Day 24 (%) (HCT116 tumor xenograft; 0.25 mg/kg, i.v., q4d × 3): 35% | Δ Tumor volume, Day 24 (HCT116 tumor xenograft; 0.25 mg/kg, i.v., q4d × 3): 382 ± 120 mm^3 | T/C, Day 24 (%) (HCT116 tumor xenograft; 0.5 mg/kg, i.v., q4d × 3): 14% | Δ Tumor volume, Day 24 (HCT116 tumor xenograft; 0.5 mg/kg, i.v., q4d × 3): 155 ± 145 mm^3 | Max. % Regression (Day) (HCT116 tumor xenograft; 0.5 mg/kg, i.v., q4d × 3, D14): 8% | Δ Tumor volume, Day 24 (HCT116 tumor xenograft; 1 mg/kg, i.v., q4d × 3): −34 ± 36 mm^3 | Max. % Regression (Day) (HCT116 tumor xenograft; 1 mg/kg, i.v., q4d × 3, D17): 46% | Δ Tumor volume, Day 17 (HCT116 tumor xenograft; 1.25 mg/kg, i.v., q4d × 3): −173 ± 12 mm^3 | Max. % Regression (Day) (HCT116 tumor xenograft; 1.25 mg/kg, i.v., q4d × 3, D20): 66% | Δ Tumor volume, Day 24 (HCT116 tumor xenograft; 2 mg/kg, i.v., q4d × 3): −141 ± 48 mm^3 | Max. % Regression (Day) (HCT116 tumor xenograft; 2 mg/kg, i.v., q4d × 3, D21): 73% | Δ Tumor volume, Day 17 (HCT116 tumor xenograft; 2.5 mg/kg, i.v., q4d × 3): −208 ± 17 mm^3 | Max. % Regression (Day) (HCT116 tumor xenograft; 2.5 mg/kg, i.v., q4d × 3, D20): 82% | Δ Tumor volume, Day 17 (HCT116 tumor xenograft; 5 mg/kg, i.v., q4d × 3 (only first two doses given)): −196 ± 11 mm^3 | Max. % Regression (Day) (HCT116 tumor xenograft; 5 mg/kg, i.v., q4d × 3 (only first two doses given), D20): 73% | anti-tumor effect (HCT116 tumor xenograft; as low as 0.25 mg/kg, q4d×3, during the dosing interval): tumor stasis | Survival (alive/total) ([2]; 1.25 mg/kg, q4d × 3, i.v): 9/9 | Survival (alive/total) ([2]; 2.5 mg/kg, q4d × 3, i.v): 9/9 | Survival (alive/total) ([2]; 4.0 mg/kg, q4d × 3, i.v): 9/9 | Survival (alive/total) ([3]; 0.625 mg/kg, q4d × 3, i.v.): 4/4 | Survival (alive/total) ([3]; 4 mg/kg, q4d × 3, i.v.): 9/9 | Survival (alive/total) ([3]; Study 2, 0.13 mg/kg, q4d × 3, i.v): 9/9 | Survival (alive/total) ([3]; Study 2, 0.25 mg/kg, q4d × 3, i.v): 9/9 | Survival (alive/total) ([3]; Study 2, 0.5 mg/kg, q4d × 3, i.v): 9/9 | Survival (alive/total) ([3]; Study 2, 1 mg/kg, q4d × 3, i.v): 9/9 | Survival (alive/total) ([3]; Study 2, 2 mg/kg, q4d × 3, i.v): 9/9

CC(=O)O[C@H]1C(=O)[C@@]2(C)[C@H]([C@H](OC(=O)c3ccccc3)[C@]3(O)C[C@H](OC(=O)[C@H](O)[C@@H](NC(=O)c4ccccc4)c4ccccc4)C(C)=C1C3(C)C)[C@]1(OC(C)=O)CO[C@@H]1C[C@@H]2O [Paclitaxel, reference compound]
Δ Tumor volume, Day 15 (HCT15 tumor xenograft; 30 mg/kg, Q4d × 3, i.p.): 703 ± 198 mm^3 | ΔT/ΔC, Day 15 (%) (HCT15 tumor xenograft; 30 mg/kg, Q4d × 3, i.p.): 104% | Survival (alive/total) ([1]; 30 mg/kg, Q4d × 3, i.p.): 9/9 | Δ Tumor volume, Day 17 (HCT116 tumor xenograft; 30 mg/kg, i.p., q4d × 3): −80 ± 3 mm^3 | Max. % Regression (Day) (HCT116 tumor xenograft; 30 mg/kg, i.p., q4d × 3, D17): 31% | Survival (alive/total) ([2]; 30 mg/kg, Q4d × 3, i.p.): 9/9 | Survival (alive/total) ([3]; 1 mg/kg, q4d × 3, i.p.): 9/9
